The target in this assay is SHP2 (Homo sapiens (Human), UniProt Q06124). Put plainly: SHP2 allosteric inhibition assay (DiFMUP prompt fluorescence). Type of assay: biochemical. The settings on record: 0.25 nM SHP2 with 0.5 μM peptide IRS1_pY1172(dPEG8)pY1222, substrate DiFMUP 100 μM.

Results on 20 compounds are retold here after US12138263B2, “Pyrazolo[3,4-b]pyrazine SHP2 phosphatase inhibitors and methods of use thereof” (Relay Therapeutics, Inc., priority 2018, dated 2024).

As usually defined, the IC50 is the concentration that gives 50% inhibition.

The structures appear in SMILES notation. A value given as a limit tells only on which side of the number the result lay.

Chain of SHP2 (Q06124 whole entry): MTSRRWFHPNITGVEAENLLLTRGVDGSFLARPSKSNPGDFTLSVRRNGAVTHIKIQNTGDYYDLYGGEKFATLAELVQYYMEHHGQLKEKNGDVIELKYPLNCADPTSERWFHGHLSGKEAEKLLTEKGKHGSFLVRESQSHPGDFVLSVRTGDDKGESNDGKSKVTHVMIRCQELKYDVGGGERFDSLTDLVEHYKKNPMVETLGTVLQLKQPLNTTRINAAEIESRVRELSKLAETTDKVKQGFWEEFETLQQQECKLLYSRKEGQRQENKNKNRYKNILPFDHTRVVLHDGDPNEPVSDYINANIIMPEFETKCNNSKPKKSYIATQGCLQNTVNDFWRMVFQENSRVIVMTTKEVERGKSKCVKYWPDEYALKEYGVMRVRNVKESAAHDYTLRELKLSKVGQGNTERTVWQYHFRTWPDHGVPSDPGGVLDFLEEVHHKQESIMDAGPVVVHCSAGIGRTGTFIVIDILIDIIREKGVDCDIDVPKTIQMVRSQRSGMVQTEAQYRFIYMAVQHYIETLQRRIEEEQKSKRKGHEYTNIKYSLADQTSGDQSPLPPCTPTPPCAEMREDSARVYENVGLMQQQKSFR

Consider `O=S(=O)(F)Oc1ccc2c(c1)CCCN2c1n[nH]c2nc(N3CCCCC3)cnc12` [Compound 1A], for which the IC50 (Table 1) is at least 10000 nM. Turning to `COC(=O)C1(c2cnc3c(-c4cccc(Cl)c4F)n[nH]c3n2)CCNCC1` [Compound 1B, methyl 4-(3-(3-chloro-2-fluorophenyl)-1H-pyrazolo[3,4-b]pyrazin-6-yl)piperidine-4-carboxylate], the IC50 (Table 2) is below 1000 nM. In turn, `CC1(CN)CCN(c2nc3[nH]nc(-c4cccc(Cl)c4F)c3nc2C#N)CC1` [Compound 1C] yielded an IC50 (Table 3) below 1000 nM. Regarding `CN(c1cnc2c(-c3cccc(Cl)c3F)n[nH]c2n1)c1ncccc1CN` [Compound 1D, N-(3-(aminomethyl)pyridin-2-yl)-3-(3-chloro-2-fluorophenyl)-N-methyl-1H-pyrazolo[3,4-b]pyrazin-6-amine], under “Table 4”, the IC50 is below 1000 nM. In the case of `O=S(=O)(F)Oc1cccc2c1CCCN2c1n[nH]c2nc(N3CCCCC3)cnc12` [Compound 2A], for the setting “Table 1”, the half-maximal inhibitory concentration (IC50) is at least 10000 nM. `Fc1c(Cl)cccc1-c1n[nH]c2nc(C3CCNCC3)cnc12` [Compound 2B]: the IC50 (Table 2) was below 1000 nM. For the setting “Table 3”, `CC1(CN)CCN(c2nc3[nH]nc(-c4cccc(Cl)c4F)c3nc2C(N)=O)CC1` [Compound 2C] returned an IC50 below 1000 nM.

As for `CN(c1cnc2c(-c3cccc(Cl)c3F)n[nH]c2n1)c1ncccc1CCN` [Compound 2D, N-(3-(2-aminoethyl)pyridin-2-yl)-3-(3-chloro-2-fluorophenyl)-N-methyl-1H-pyrazolo[3,4-b]pyrazin-6-amine], under “Table 4”, the IC50 was below 1000 nM. The compound `CC1(CN)CCN(c2cnc3c(N4CCCc5c(OS(=O)(=O)F)cccc54)n[nH]c3n2)CC1` [Compound 3A] showed an IC50 (Table 1) below 1000 nM. Where the note is “Table 2”, `NC(=O)C1(c2cnc3c(-c4cccc(Cl)c4F)n[nH]c3n2)CCNCC1` [Compound 3B] registered a 50% inhibitory concentration (IC50) below 1000 nM. In the case of `CC1(N)CCN(c2nc3[nH]nc(-c4cccc(Cl)c4F)c3nc2C(N)=O)CC1` [Compound 3C, 6-(4-amino-4-methylpiperidin-1-yl)-3-(3-chloro-2-fluorophenyl)-1H-pyrazolo[3,4-b]pyrazine-5-carboxamide], the 50% inhibitory concentration (IC50) (Table 3) was below 1000 nM. `CN(c1cnc2c(N3CCCc4ncccc43)n[nH]c2n1)c1ncccc1CCN` [Compound 3D, N-(3-(2-aminoethyl)pyridin-2-yl)-3-(3,4-dihydro-1,5-naphthyridin-1(2H)-yl)-N-methyl-1H-pyrazolo[3,4-b]pyrazin-6-amine] registered a half-inhibitory concentration (IC50) (Table 4) of 1000 to 10000 nM. Compound `O=S(=O)(F)c1cccc2c1CCCN2c1n[nH]c2nc(N3CCCCC3)cnc12` [Compound 4A] returned an IC50 (Table 1) of at least 10000 nM. Turning to `OCC1(c2cnc3c(-c4cccc(Cl)c4F)n[nH]c3n2)CCNCC1` [Compound 4B], the IC50 (Table 2) was below 1000 nM.

For `CC1(N)CCN(c2nc3[nH]nc(-c4cccc(Cl)c4F)c3nc2C(=O)O)CC1` [Compound 4C, 6-(4-amino-4-methylpiperidin-1-yl)-3-(3-chloro-2-fluorophenyl)-1H-pyrazolo[3,4-b]pyrazine-5-carboxylic Acid], the IC50 (Table 3) lay within 1000 to 10000 nM.

In turn, `NC1CCN(C(=O)c2cnc3c(-c4cccc(Cl)c4F)n[nH]c3n2)C1` (centres unmarked) [Compound 5B] came in with an IC50 (Table 2) of 1000 to 10000 nM. In the case of `CC1(CN)CCN(c2nc3[nH]nc(N4CCCc5ncccc54)c3nc2O)CC1` [Compound 5C, 6-(4-(aminomethyl)-4-methylpiperidin-1-yl)-3-(3,4-dihydro-1,5-naphthyridin-1(2H)-yl)-1H-pyrazolo[3,4-b]pyrazin-5-ol], the IC50 (Table 3) was below 1000 nM. Take `CC1(CN)CCN(c2cnc3c(N4CCCc5cc(OS(=O)(=O)F)ccc54)n[nH]c3n2)CC1` [Compound 6A]: the IC50 (Table 1) is below 1000 nM.

Compound `CC1(CN)CCN(C(=O)c2cnc3c(-c4cccc(Cl)c4F)n[nH]c3n2)C1` (centres unmarked) [Compound 6B] gave an IC50 (Table 2) of at least 10000 nM.

Compound `Cc1nc2c(N3CCCc4ncccc43)n[nH]c2nc1N1CCC(C)(CN)CC1` [Compound 6C, (1-(3-(3,4-dihydro-1,5-naphthyridin-1(2H)-yl)-5-methyl-1H-pyrazolo[3,4-b]pyrazin-6-yl)-4-methylpiperidin-4-yl)methanamine] registered an IC50 (Table 3) below 1000 nM.
